Assays:
[1] = test system: cat fleas (Ctenocephalides felis); experiment: control of flea on dog; type: in vivo; details: dogs, 10 mg/kg, 30 mg/mL in 1:1 dimethyl sulfoxide/corn oil; counts versus placebo at 1, 9, 16, 23, 30 days; satisfactory in any of the three areas, for a period ranging from eight to thirty days
Text: (§1) Cats are only infested with fleas.

[2] = test system: ticks (Rhipicephalus sanguineus); experiment: control of tick on dog; type: in vivo; details: dogs, 10 mg/kg, 30 mg/mL in 1:1 dimethyl sulfoxide/corn oil; counts versus placebo at 1, 9, 16, 23, 30 days; satisfactory in any of the three areas, for a period ranging from eight to thirty days
Text: as §1

[3] = test system: cat fleas (Ctenocephalides felis); experiment: control of flea on cat; type: in vivo; details: cats, 20 mg/kg, 30 mg/mL in 1:1 dimethyl sulfoxide/corn oil; counts versus placebo at 1, 9, 16, 23, 30 days; satisfactory in any of the three areas, for a period ranging from eight to thirty days
Text: as §1

[4] = side-effects in treated dogs and cats; details: dogs 10 mg/kg, cats 20 mg/kg; period ranging from eight to thirty days
Method: The compounds 1-(2,6-dichloro-4-trifluoromethylphenyl)-3-cyano-4-trifluromethylthio-5-hydroxypyrazole, 1-(2,6-dichloro-4-trifluoromethylphenyl)-3-cyano-4-trifluoromethylsulfinyl-5-hydroxypyrazole and 1-(2,6-dichloro-4-trifluoromethylphenyl)-3-cyano-4-trifluoromethylsulfonyl-5-hydroxypyrazole are formulated as 30 mg/mL formulations in a 1:1 volume/volume solution of dimethyl sulfoxide and corn oil. Using this formulation, mixed breed dogs and cats are treated at a rate of 10 mg of the compound per kg (mg/kg)of body weight of the dog and 20 mg/kg of the cat treated. The animals are fasted for at least 8 hours prior to treatment, fed half of the daily ration immediately prior to treatment, then allowed access to the remainder of the daily ration immediately following treatment.
All dogs are infested with cat fleas (Ctenocephalides felis) and with ticks (Rhipicephalus sanguineus) 1 day prior to administration of the compound. Cats are only infested with fleas. […] At 1, 9, 16, 23 and 30 days after treatment the control of fleas and ticks in treated dogs and cats is determined versus a group of infested dogs and cats which receive a placebo consisting of a 1:1 volume/volume solution of dimethyl sulfoxide and corn oil. To determine the efficacies of the compounds, the arthropods are combed from the animnals and counted.

SMILES | control of flea on dog [1] | control of tick on dog [2] | control of flea on cat [3] | side-effect [4]
N#Cc1nn(-c2c(Cl)cc(C(F)(F)F)cc2Cl)c(O)c1SC(F)(F)F [Compound 1-1, 1-(2,6-dichloro-4-trifluoromethylphenyl)-3-cyano-4-trifluoromethylsulfenyl-5-hydroxypyrazole] | Satisfactory results | Satisfactory results | Satisfactory results | 
N#Cc1nn(-c2c(Cl)cc(C(F)(F)F)cc2Cl)c(O)c1[S+]([O-])C(F)(F)F (centres unmarked) [Compound 1-3, 1-(2,6-dichloro-4-trifluoromethylphenyl)-3-cyano-4-trifluoromethylsulfinyl-5-hydroxypyrazole] | Satisfactory results | Satisfactory results | Satisfactory results | 
N#Cc1nn(-c2c(Cl)cc(C(F)(F)F)cc2Cl)c(O)c1S(=O)(=O)C(F)(F)F [Compound 1-5, 1-(2,6-dichloro-4-trifluoromethylphenyl)-3-cyano-4-trifluoromethylsulfonyl-5-hydroxypyrazole] | Satisfactory results | Satisfactory results | Satisfactory results | 
N#Cc1nn(-c2c(Cl)cc(C(F)(F)F)cc2Cl)c(O)c1SC(F)(F)Cl [Compound 1-9, 1-(2,6-dichloro-4-trifluoromethylphenyl)-3-cyano-4-chlorodifluoromethylsulfenyl-5-hydroxypyrazole] | Satisfactory results | Satisfactory results | Satisfactory results | without any significant side-effect
CCOc1c(SC(F)(F)F)c(C#N)nn1-c1c(Cl)cc(C(F)(F)F)cc1Cl [Compound 3-1, 1-(2,6-dichloro-4-trifluoromethylphenyl)-3-cyano-4-trifluoromethylsulfenyl-5-ethoxypyrazole] | Satisfactory results | Satisfactory results | Satisfactory results | 
CC(C)(C)C(=O)Oc1c(SC(F)(F)F)c(C#N)nn1-c1c(Cl)cc(C(F)(F)F)cc1Cl [Compound 3-10, 1-(2,6-dichloro-4-trifluoromethylphenyl)-3-cyano-4-trifluoromethylsulfenyl-5-trimethylacetoxypyrazole] | Satisfactory results | Satisfactory results | Satisfactory results | 
CN(C)C(=O)Oc1c(S(=O)(=O)C(F)(F)F)c(C#N)nn1-c1c(Cl)cc(C(F)(F)F)cc1Cl [Compound 19-1, 1-(2,6-dichloro-4-trifluorometylphenyl) -3-cyano-4-trifluormethylsulfonyl-5-N,N-dimethylcarbamyloxypyrazole] | Satisfactory results | Satisfactory results | Satisfactory results | without any significant side-effect
